Measurements reported in ChEMBL document CHEMBL1201862, “PubChem BioAssay data set” (2004).
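Compound exposure: 48 hours, 5 concentrations, 96-well plates. The concentration for 50% growth inhibition is given as GI50.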 Activity calls are given as the source filed them. No stated cut-off is given here; in the data, active = GI50 up to about 1.1 µM and inactive = higher.

Experiments:
Test in all cases: NCI tumour cell line growth inhibition, 48 h
MDA-N = test system: MDA-N
A549 = test system: A549
NCI-H522 = test system: NCI-H522
SN12C = test system: SN12C
TK-10 = test system: TK-10
SW-620 = test system: SW-620
EKVX = test system: EKVX
HL-60 = test system: HL-60
MOLT-4 = test system: MOLT-4
HOP-92 = test system: HOP-92
CCRF-CEM = test system: CCRF-CEM
HCC 2998 = test system: HCC 2998
UACC-257 = test system: UACC-257
HOP-62 = test system: HOP-62
A498 = test system: A498
KM12 = test system: KM12
MCF7 = test system: MCF7
HCT-116 = test system: HCT-116
RPMI-8226 = test system: RPMI-8226
SR = test system: SR

`O=C1C=CC[C@H](/C=C/C[C@@H](O)C[C@H](O)/C=C/c2ccccc2)O1` was tested, and the GI50 (MDA-N) was 12.4 µM (inactive), the GI50 (A549) was 15.8 µM (inactive) and the GI50 (NCI-H522) was 4.25 µM (inactive). For the same compound, the GI50 (SN12C) was 13.8 µM (inactive), the GI50 (TK-10) was 11.7 µM (inactive) and the GI50 (SW-620) was 13.5 µM (inactive). For the same compound, the GI50 (EKVX) was 12 µM (inactive), the GI50 (HL-60) was 3.56 µM (inactive) and the GI50 (MOLT-4) was 14 µM (inactive). For the same compound, the GI50 (HOP-92) was 2.56 µM (inactive), the GI50 (CCRF-CEM) was 3.74 µM (inactive) and the GI50 (HCC 2998) was 2.28 µM (inactive). The GI50 (UACC-257) was 13.9 µM (inactive), the GI50 (HOP-62) was 16.5 µM (inactive) and the GI50 (A498) was 14.1 µM (inactive). For the same compound, the GI50 (KM12) was 12.3 µM (inactive), the GI50 (MCF7) was 12.4 µM (inactive) and the GI50 (HCT-116) was 5.09 µM (inactive).

For `OCCNCNc1nc(NCNCCO)nc(N(CNCCO)CNCCO)n1`, the GI50 (MDA-N) was 19.2 µM (inactive), the GI50 (A549) was 27.2 µM (inactive) and the GI50 (NCI-H522) was 21.3 µM (inactive). For the same compound, the GI50 (SN12C) was 22.3 µM (inactive), the GI50 (TK-10) was 28.8 µM (inactive) and the GI50 (SW-620) was 19.8 µM (inactive). For the same compound, the GI50 (EKVX) was 25.3 µM (inactive), the GI50 (HL-60) was 20.5 µM (inactive) and the GI50 (MOLT-4) was 23.2 µM (inactive). For the same compound, the GI50 (HOP-92) was 21.9 µM (inactive), the GI50 (CCRF-CEM) was 12.2 µM (inactive) and the GI50 (HCC 2998) was 18.9 µM (inactive). The GI50 (UACC-257) was 18.2 µM (inactive), the GI50 (HOP-62) was 19.5 µM (inactive) and the GI50 (RPMI-8226) was > 43.8 µM (inactive). For the same compound, the GI50 (A498) was 28.1 µM (inactive), the GI50 (KM12) was 39.4 µM (inactive) and the GI50 (MCF7) was 28.1 µM (inactive). The GI50 (HCT-116) was 18.7 µM (inactive).

`CC(NC(=O)C(N)CC(=O)O)NC(=O)C1CCC1` (stereo not drawn) was tested, and the GI50 (MDA-N) was > 100 µM (inactive), the GI50 (A549) was > 100 µM (inactive) and the GI50 (NCI-H522) was > 100 µM (inactive). For the same compound, the GI50 (SN12C) was > 100 µM (inactive), the GI50 (TK-10) was > 100 µM (inactive) and the GI50 (SW-620) was > 100 µM (inactive). The GI50 (EKVX) was > 100 µM (inactive), the GI50 (MOLT-4) was > 100 µM (inactive) and the GI50 (CCRF-CEM) was > 100 µM (inactive). For the same compound, the GI50 (UACC-257) was > 100 µM (inactive), the GI50 (HOP-62) was > 100 µM (inactive) and the GI50 (RPMI-8226) was > 100 µM (inactive). The GI50 (A498) was > 100 µM (inactive), the GI50 (KM12) was > 100 µM (inactive) and the GI50 (MCF7) was > 100 µM (inactive). For the same compound, the GI50 (HCT-116) was > 100 µM (inactive).

With `CCc1c(O)cc(=O)oc1-c1ccc(OC)c(OC)c1` the GI50 (A549) was > 100 µM (inactive), the GI50 (NCI-H522) was 64.1 µM (inactive) and the GI50 (SN12C) was > 100 µM (inactive). The GI50 (TK-10) was > 100 µM (inactive), the GI50 (SW-620) was > 100 µM (inactive) and the GI50 (EKVX) was > 100 µM (inactive). The GI50 (MOLT-4) was > 100 µM (inactive), the GI50 (HOP-92) was > 100 µM (inactive) and the GI50 (CCRF-CEM) was > 100 µM (inactive). For the same compound, the GI50 (HCC 2998) was > 100 µM (inactive), the GI50 (UACC-257) was > 100 µM (inactive) and the GI50 (HOP-62) was > 100 µM (inactive). The GI50 (A498) was > 100 µM (inactive), the GI50 (KM12) was > 100 µM (inactive) and the GI50 (MCF7) was > 100 µM (inactive). For the same compound, the GI50 (HCT-116) was > 100 µM (inactive).

With `CCOC(=O)C(=[N+]=[N-])C(=O)CSC#N` the GI50 (MDA-N) was 36 µM (inactive), the GI50 (A549) was 97.7 µM (inactive) and the GI50 (NCI-H522) was 24.4 µM (inactive). The GI50 (SN12C) was 25.6 µM (inactive), the GI50 (TK-10) was 94.8 µM (inactive) and the GI50 (SW-620) was 57.3 µM (inactive). The GI50 (EKVX) was > 100 µM (inactive), the GI50 (HL-60) was 39.3 µM (inactive) and the GI50 (MOLT-4) was 39.2 µM (inactive). The GI50 (CCRF-CEM) was 35.1 µM (inactive), the GI50 (UACC-257) was 71.4 µM (inactive) and the GI50 (HOP-62) was > 100 µM (inactive). The GI50 (A498) was > 100 µM (inactive), the GI50 (KM12) was > 100 µM (inactive) and the GI50 (MCF7) was 38.4 µM (inactive). The GI50 (HCT-116) was 33 µM (inactive).

For `CCOC(=O)C1(C/C=C\CBr)CCCCCCCCCCC1=O` (stereo not drawn), the GI50 (MDA-N) was 11.9 µM (inactive), the GI50 (A549) was 18 µM (inactive) and the GI50 (NCI-H522) was 0.497 µM (active). For the same compound, the GI50 (SN12C) was 12.6 µM (inactive), the GI50 (TK-10) was 8.69 µM (inactive) and the GI50 (SW-620) was 13.5 µM (inactive). The GI50 (EKVX) was 14.9 µM (inactive), the GI50 (MOLT-4) was 3.56 µM (inactive) and the GI50 (CCRF-CEM) was 5.69 µM (inactive). The GI50 (HCC 2998) was 16 µM (inactive), the GI50 (UACC-257) was 15.2 µM (inactive) and the GI50 (HOP-62) was 18.2 µM (inactive). The GI50 (RPMI-8226) was 2.81 µM (inactive), the GI50 (A498) was 13.9 µM (inactive) and the GI50 (KM12) was 13.2 µM (inactive). For the same compound, the GI50 (MCF7) was 12.9 µM (inactive) and the GI50 (HCT-116) was 17 µM (inactive).

`Cc1ccc(-c2c(C#N)c(O)n(NS(=O)(=O)c3ccccc3)c(=O)c2C#N)cc1` was tested, and the GI50 (A549) was > 100 µM (inactive), the GI50 (NCI-H522) was > 100 µM (inactive) and the GI50 (SN12C) was > 100 µM (inactive). The GI50 (TK-10) was > 100 µM (inactive), the GI50 (SW-620) was > 100 µM (inactive) and the GI50 (EKVX) was > 100 µM (inactive). The GI50 (HL-60) was > 100 µM (inactive), the GI50 (MOLT-4) was > 100 µM (inactive) and the GI50 (HOP-92) was > 100 µM (inactive). The GI50 (CCRF-CEM) was > 100 µM (inactive), the GI50 (HCC 2998) was > 100 µM (inactive) and the GI50 (UACC-257) was > 100 µM (inactive). The GI50 (HOP-62) was > 100 µM (inactive), the GI50 (A498) was > 100 µM (inactive) and the GI50 (KM12) was > 100 µM (inactive). For the same compound, the GI50 (MCF7) was > 100 µM (inactive) and the GI50 (HCT-116) was > 100 µM (inactive).

In the case of `CN(C)CCNc1ccc(CO)c2sc3ccc(O)cc3c(=O)c12`, the GI50 (MDA-N) is reported as 1.45 µM (inactive), the GI50 (A549) is reported as 0.286 µM (active) and the GI50 (NCI-H522) is reported as 1.32 µM (inactive). The GI50 (SN12C) was 1.23 µM (inactive), the GI50 (TK-10) was 8.77 µM (inactive) and the GI50 (SW-620) was 1.17 µM (inactive). For the same compound, the GI50 (EKVX) was 5.13 µM (inactive), the GI50 (HL-60) was 0.258 µM (active) and the GI50 (SR) was < 0.0157 µM (active). For the same compound, the GI50 (MOLT-4) was 0.0262 µM (active), the GI50 (HOP-92) was 0.832 µM (active) and the GI50 (CCRF-CEM) was 0.171 µM (active). The GI50 (HCC 2998) was 2.58 µM (inactive), the GI50 (UACC-257) was 5.24 µM (inactive) and the GI50 (HOP-62) was 0.204 µM (active). The GI50 (RPMI-8226) was 1.69 µM (inactive), the GI50 (A498) was 6.89 µM (inactive) and the GI50 (KM12) was 2.34 µM (inactive). The GI50 (HCT-116) was 1.12 µM (inactive).
